Laboratory results reported in patent US6737383B1, “Herbicidal oxadiazolidines” (priority 1999, dated 2004).

Key:
bamyardgrass = test: Test B flood test barnyardgrass; type: in vivo, Echinochloa crus-galli
Outline: (§1)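 Each value is a visual injury score relative to controls, with 10 meaning complete control and 0 no effect. Evaluation took place twelve to sixteen days after the 2-leaf-stage plants were treated and kept in the greenhouse.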

giant foxtail = test: Test B pre/postemergence giant foxtail; type: in vivo, Setaria faberii
Outline: (§2)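 Herbicidal effect was estimated by eye on a ten-point control scale after plants spent twelve to sixteen days in a greenhouse following soil or foliar treatment. Foliar sprays targeted plants at one to four leaves; all doses were formulated in a non-phytotoxic solvent with surfactant.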

sugar beet = test: Test B pre/postemergence sugar beet; type: in vivo, Beta vulgaris
Outline: as §2

cocklebur = test: Test B pre/postemergence cocklebur; type: in vivo, Xanthium strumarium
Outline: as §2

surinam grass = test: Test B pre/postemergence surinam grass; type: in vivo, Brachiaria decumbens
Outline: as §2

rape = test: Test B pre/postemergence rape; type: in vivo, Brassica napus
Outline: as §2

pigweed = test: Test B pre/postemergence pigweed; type: in vivo, Amaranthus retroflexus
Outline: as §2

soybean = test: Test B pre/postemergence soybean; type: in vivo, Glycine max
Outline: as §2

smallflower flatsedge = test: Test B flood test smallflower flatsedge; type: in vivo, Cyperus difformis
Outline: as §1

morningglory = test: Test B pre/postemergence morningglory; type: in vivo, Ipomoea hederacea
Outline: as §2

purple nutsedge = test: Test B pre/postemergence purple nutsedge; type: in vivo, Cyperus rotundus
Outline: as §2

blackgrass = test: Test B pre/postemergence blackgrass; type: in vivo, Alopecurus myosuroides
Outline: as §2

velvetleaf = test: Test B pre/postemergence velvetleaf; type: in vivo, Abutilon theophrasti
Outline: as §2

corn = test: Test B pre/postemergence corn; type: in vivo, Zea mays
Outline: as §2

duck salad = test: Test B flood test duck salad; type: in vivo, Heteranthera limosa
Outline: as §1

bedstraw = test: Test B pre/postemergence bedstraw; type: in vivo, Galium aparine
Outline: as §2

[1] = Rate 62 g/ha, headed Pre-emergence (flood test species), scale 0 to 10 (0 no effect, 10 complete control)
[2] = Rate 125 g/ha, Pre-emergence, flood test species, scale 0 to 10 where 0 is no effect and 10 is complete control
[3] = Rate 250 g/ha, Pre-emergence, flood-test species, scale 0 to 10, 0 is no effect, 10 is complete control
[4] = Rate 500 g/ha, Pre-emergence, flood test species, scale 0 to 10 (0 no effect, 10 complete control)
[5] = Preemergence, Rate 62 g/ha, scale of 0 to 10 where 0 is no effect and 10 is complete control
[6] = Preemergence, Rate 125 g/ha, 0 is no effect, 10 is complete control
[7] = Preemergence, Rate 250 g/ha, scale 0 to 10, 0 is no effect, 10 is complete control
[8] = Preemergence, Rate 500 g/ha, scale of 0 to 10 where 0 is no effect and 10 is complete control
[9] = Rate 62 g/ha, Postemergence, scale of 0 to 10 where 0 is no effect and 10 is complete control
[10] = Rate 125 g/ha, Postemergence, scale 0 to 10
[11] = Rate 500 g/ha, Postemergence, scale 0 to 10

CC(C)N(C(=O)n1oc(=O)n(Cc2ccco2)c1=O)c1ccc(F)cc1F [Compound 208]
Barnyardgrass plant response rating (bamyardgrass; [1]): 0 | Barnyardgrass plant response rating (bamyardgrass; [2]): 0 | Barnyardgrass plant response rating (bamyardgrass; [3]): 0 | Barnyardgrass plant response rating (bamyardgrass; [4]): 0 | Giant foxtail plant response rating (giant foxtail; [5]): 2 | Giant foxtail plant response rating (0 to 10 scale) (giant foxtail; [6]): 8 | Giant foxtail plant response rating (giant foxtail; [7]): 9 | Plant response rating, Giant foxtail (giant foxtail; [8]): 10 | Giant foxtail plant response rating (giant foxtail; [9]): 0 | Giant foxtail plant response rating (giant foxtail; [10]): 0 | Plant response rating (0 to 10; 0 is no effect, 10 is complete control), Giant foxtail (giant foxtail; Rate 250 g/ha, Postemergence): 0 | Giant foxtail plant response rating (giant foxtail; [11]): 1 | Sugarbeets plant response rating (sugar beet; [5]): 0 | Sugarbeets plant response rating (0 to 10 scale) (sugar beet; [6]): 0 | Sugarbeets plant response rating (sugar beet; [7]): 0 | Plant response rating, Sugarbeets (sugar beet; [8]): 0 | Sugarbeets plant response rating (sugar beet; [9]): 0 | Sugarbeets plant response rating (sugar beet; [10]): 0 | Plant response rating (0 to 10; 0 is no effect, 10 is complete control), Sugarbeets (sugar beet; Rate 250 g/ha, Postemergence): 0 | Sugarbeets plant response rating (sugar beet; [11]): 0 | Cocklebur plant response rating (cocklebur; [5]): 0 | Cocklebur plant response rating (0 to 10 scale) (cocklebur; [6]): 0 | Cocklebur plant response rating (cocklebur; [7]): 0 | Plant response rating, Cocklebur (cocklebur; [8]): 0 | Cocklebur plant response rating (cocklebur; [9]): 0 | Cocklebur plant response rating (cocklebur; [10]): 0 | Plant response rating (0 to 10; 0 is no effect, 10 is complete control), Cocklebur (cocklebur; Rate 250 g/ha, Postemergence): 0 | Cocklebur plant response rating (cocklebur; [11]): 0 | B. signalgrass plant response rating (surinam grass; [5]): 0 | B. signalgrass plant response rating (0 to 10 scale) (surinam grass; [6]): 0 | B. signalgrass plant response rating (surinam grass; [7]): 0 | Plant response rating, B. signalgrass (surinam grass; [8]): 0 | B. signalgrass plant response rating (surinam grass; [9]): 0 | B. signalgrass plant response rating (surinam grass; Rate 125 g/ha, Postemergence, scale 0 (no effect) to 10 (complete control)): 0 | Plant response rating (0 to 10; 0 is no effect, 10 is complete control), B. signalgrass (surinam grass; Rate 250 g/ha, Postemergence): 0 | B. signalgrass plant response rating (surinam grass; Rate 500 g/ha, Postemergence, scale 0 to 10, 0 no effect, 10 complete control): 3 | Rape plant response rating (rape; [5]): 0 | Rape plant response rating (0 to 10 scale) (rape; [6]): 0 | Rape plant response rating (rape; [7]): 0 | Plant response rating, Rape (rape; [8]): 0 | Rape plant response rating (rape; [9]): 0 | Rape plant response rating (rape; [10]): 0 | Plant response rating (0 to 10; 0 is no effect, 10 is complete control), Rape (rape; Rate 250 g/ha, Postemergence): 0 | Rape plant response rating (rape; [11]): 0 | Redroot pigweed plant response rating (pigweed; [5]): 0 | Redroot pigweed plant response rating (0 to 10 scale) (pigweed; [6]): 0 | Redroot pigweed plant response rating (pigweed; [7]): 0 | Plant response rating, Redroot pigweed (pigweed; [8]): 2 | Redroot pigweed plant response rating (pigweed; [9]): 0 | Redroot pigweed plant response rating (pigweed; [10]): 0 | Plant response rating (0 to 10; 0 is no effect, 10 is complete control), Redroot pigweed (pigweed; Rate 250 g/ha, Postemergence): 0 | Redroot pigweed plant response rating (pigweed; [11]): 0 | Soybean plant response rating (soybean; [5]): 0 | Soybean plant response rating (0 to 10 scale) (soybean; [6]): 0 | Soybean plant response rating (soybean; [7]): 0 | Plant response rating, Soybean (soybean; [8]): 0 | Soybean plant response rating (soybean; [9]): 1 | Soybean plant response rating (soybean; [10]): 1 | Plant response rating (0 to 10; 0 is no effect, 10 is complete control), Soybean (soybean; Rate 250 g/ha, Postemergence): 2 | Soybean plant response rating (soybean; [11]): 2 | S. Flatsedge plant response rating (smallflower flatsedge; [1]): 0 | S. Flatsedge plant response rating (smallflower flatsedge; [2]): 0 | S. Flatsedge plant response rating (smallflower flatsedge; [3]): 0 | S. Flatsedge plant response rating (smallflower flatsedge; [4]): 0 | Morningglory plant response rating (morningglory; [5]): 0 | Morningglory plant response rating (0 to 10 scale) (morningglory; [6]): 0 | Morningglory plant response rating (morningglory; [7]): 0 | Plant response rating, Morningglory (morningglory; [8]): 0 | Morningglory plant response rating (morningglory; [9]): 1 | Morningglory plant response rating (morningglory; [10]): 1 | Plant response rating (0 to 10; 0 is no effect, 10 is complete control), Morningglory (morningglory; Rate 250 g/ha, Postemergence): 1 | Morningglory plant response rating (morningglory; [11]): 3 | Nutsedge plant response rating (purple nutsedge; [5]): 0 | Nutsedge plant response rating (0 to 10 scale) (purple nutsedge; [6]): 0 | Nutsedge plant response rating (purple nutsedge; [7]): 0 | Plant response rating, Nutsedge (purple nutsedge; [8]): 0 | Nutsedge plant response rating (purple nutsedge; [9]): 0 | Nutsedge plant response rating (purple nutsedge; [10]): 0 | Plant response rating (0 to 10; 0 is no effect, 10 is complete control), Nutsedge (purple nutsedge; Rate 250 g/ha, Postemergence): 0 | Nutsedge plant response rating (purple nutsedge; [11]): 0 | Blackgrass plant response rating (blackgrass; [5]): 0 | Blackgrass plant response rating (0 to 10 scale) (blackgrass; [6]): 0 | Blackgrass plant response rating (blackgrass; [7]): 0 | Plant response rating, Blackgrass (blackgrass; [8]): 3 | Blackgrass plant response rating (blackgrass; [9]): 0 | Blackgrass plant response rating (blackgrass; [10]): 0 | Plant response rating (0 to 10; 0 is no effect, 10 is complete control), Blackgrass (blackgrass; Rate 250 g/ha, Postemergence): 0 | Blackgrass plant response rating (blackgrass; [11]): 7 | Velvetleaf plant response rating (velvetleaf; [5]): 0 | Velvetleaf plant response rating (velvetleaf; [7]): 0 | Plant response rating, Velvetleaf (velvetleaf; [8]): 3 | Velvetleaf plant response rating (velvetleaf; [9]): 1 | Velvetleaf plant response rating (velvetleaf; [10]): 1 | Plant response rating (0 to 10; 0 is no effect, 10 is complete control), Velvetleaf (velvetleaf; Rate 250 g/ha, Postemergence): 1 | Corn plant response rating (corn; [5]): 0 | Corn plant response rating (0 to 10 scale) (corn; [6]): 0 | Corn plant response rating (corn; [7]): 0 | Plant response rating, Corn (corn; [8]): 0 | Corn plant response rating (corn; [9]): 0 | Corn plant response rating (corn; [10]): 0 | Plant response rating (0 to 10; 0 is no effect, 10 is complete control), Corn (corn; Rate 250 g/ha, Postemergence): 0 | Corn plant response rating (corn; [11]): 0 | Ducksalad plant response rating (duck salad; [1]): 0 | Ducksalad plant response rating (duck salad; [2]): 0 | Ducksalad plant response rating (duck salad; [3]): 0 | Ducksalad plant response rating (duck salad; [4]): 0 | Bedstraw plant response rating (bedstraw; [5]): 0 | Bedstraw plant response rating (0 to 10 scale) (bedstraw; [6]): 0 | Bedstraw plant response rating (bedstraw; [7]): 0 | Plant response rating, Bedstraw (bedstraw; [8]): 0 | Bedstraw plant response rating (bedstraw; [9]): 0 | Bedstraw plant response rating (bedstraw; [10]): 0 | Plant response rating (0 to 10; 0 is no effect, 10 is complete control), Bedstraw (bedstraw; Rate 250 g/ha, Postemergence): 0 | Bedstraw plant response rating (bedstraw; [11]): 5
